Laboratory results: article PMC6479881 (Molecules, 2019)

Biological target: T1, Enterococcus faecalis thymidylate synthase (EfTS) (Enterococcus faecalis, UniProt Q834R3)
T1 construct: gene thyA
T1 sequence (Q834R3 1-315): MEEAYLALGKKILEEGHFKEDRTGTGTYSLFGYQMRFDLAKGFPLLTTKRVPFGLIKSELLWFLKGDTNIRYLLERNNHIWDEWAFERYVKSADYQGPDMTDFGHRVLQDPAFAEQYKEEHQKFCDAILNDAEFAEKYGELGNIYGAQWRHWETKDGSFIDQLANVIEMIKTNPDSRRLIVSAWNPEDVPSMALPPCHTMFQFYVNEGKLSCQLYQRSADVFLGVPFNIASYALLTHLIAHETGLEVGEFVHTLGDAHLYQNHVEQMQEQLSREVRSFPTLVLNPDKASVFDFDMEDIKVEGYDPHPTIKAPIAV
Assay: crystal structure at […] Å; spectrophotometric enzyme inhibition assay (IC50 […], Ki calculated)
Assay type: biochemical

**Q.** For `O=c1[nH]c(=O)n([C@H]2C[C@H](O)[C@@H](COP(=O)(O)O)O2)cc1F` [FdUMP, 5-fluoro-2′-deoxyuridine-5′-monophosphate], which Ki is on record?
**A.** 0.074 µM
